Source: PubChem BioAssay (NCI)
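Growth conditions: 96-well plates. Treatment: test compound, 48 hours, 5 concentrations. Analysis: linear interpolation between bracketing concentrations; unreached endpoints set to highest concentration. Here, GI50 denotes the concentration required for 50% inhibition of growth. TGI: total growth inhibition.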

Columns and labels:
Assay in all cases: growth of human tumour cells (NCI), 48 h
[1] = test system: ACHN renal
[2] = test system: DLD-1 colon
[3] = test system: HCC-2998 colon
[4] = test system: HL-60(TB) leukemia
[5] = test system: OVCAR-4 ovarian
[6] = test system: SF-539 CNS
[7] = test system: SR leukemia
[8] = test system: HS 578T breast
[9] = test system: MDA-MB-231 breast

Row | SMILES | TGI [1] | TGI [2] | TGI [3] | TGI [4] | TGI [5] | TGI [6] | TGI [7] | GI50 [1] | GI50 [3] | GI50 [4] | GI50 [8] | TGI [8] | GI50 [9] | TGI [9] | GI50 [5] | GI50 [6] | GI50 [7]
1 | CNC(=O)NCCN1N=C(C)/C(=C\c2ccccc2)CC1=O | > 100 µM | > 100 µM | > 100 µM | > 100 µM | > 100 µM | > 100 µM | > 100 µM | – | – | – | – | – | – | – | – | – | –
2 | CCOC(=O)CCSC1=CC(=O)c2nc3ccccc3c3ccnc1c23 | 42.5 µM | – | 40.2 µM | > 100 µM | 31.7 µM | 35.2 µM | > 100 µM | 18.6 µM | 19.2 µM | 26.7 µM | 32.8 µM | > 100 µM | 16.7 µM | 41.6 µM | 15.2 µM | 18.2 µM | 7.59 µM
3 | CC(C)(C)OC(=O)N1Cc2cc3ccccc3nc2C1CO (centres undefined) | > 100 µM | – | > 100 µM | > 100 µM | > 100 µM | > 100 µM | > 100 µM | > 100 µM | > 100 µM | > 100 µM | > 100 µM | > 100 µM | > 100 µM | > 100 µM | > 100 µM | > 100 µM | > 100 µM
4 | COc1cccc(-c2nn(-c3ccccc3)cc2-c2ccnc(NCCCNS(=O)(=O)c3ccc(C(F)(F)F)cc3)c2)c1 | > 100 µM | – | > 100 µM | > 100 µM | > 100 µM | > 100 µM | 4.84 µM | 4.8 µM | 5.22 µM | 3.97 µM | 5.41 µM | > 100 µM | 4.98 µM | > 100 µM | 4.36 µM | 5.66 µM | 1.67 µM
5 | Cc1ccc(NC2=CC(=O)C(=O)c3ccccc32)cc1 | 5.33 µM | – | 4.89 µM | > 100 µM | 2.72 µM | 3.77 µM | > 100 µM | 1.92 µM | 2.11 µM | 2.77 µM | 2.54 µM | 7.26 µM | 2.57 µM | 15.8 µM | 1.39 µM | 1.8 µM | 3.96 µM
6 | Cc1cn2c(/C=C3\C(=O)N(C)c4ccc(Cl)cc43)c(C)nc2s1 | 32.6 µM | – | 6.18 µM | > 100 µM | 91 µM | 6.93 µM | 1.52 µM | 4.62 µM | 2.61 µM | 3.36 µM | 8.28 µM | > 100 µM | 4.5 µM | 23.5 µM | 6.18 µM | 2.46 µM | 0.226 µM
7 | CCN(CC)CCCNc1cc(OC)c(OC)c2cccnc12 | 46.3 µM | – | 25.7 µM | 6.55 µM | 3.18 µM | 23 µM | > 100 µM | 2.61 µM | 11.9 µM | 3.47 µM | 7.3 µM | 42.8 µM | 6.69 µM | 51.4 µM | 1.68 µM | 8.01 µM | 1.22 µM
8 | OCC1OC(n2cnc3c(NCc4ccccc4O)ncnc32)C(O)C1O (centres undefined) | > 44.4 µM | – | 8.42 µM | 0.92 µM | 8.14 µM | 2.49 µM | > 29.3 µM | 0.327 µM | 1.76 µM | 0.228 µM | 1.96 µM | > 58.6 µM | 0.0769 µM | 3.28 µM | 0.294 µM | 0.403 µM | 0.413 µM
